Assay results: PubChem BioAssay (NCI)
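Five compound concentrations were applied to cells in 96-well plates for 48 hours; endpoints were derived by simple linear interpolation of the resulting dose-response curve. The concentration for full growth arrest is given as TGI.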

Columns and labels:
Test in all cases: NCI tumour cell line growth inhibition, 48 h
MALME-3M melanoma = tested on: MALME-3M melanoma
OVCAR-5 ovarian = tested on: OVCAR-5 ovarian
A549 NSCLC = tested on: A549 NSCLC
HOP-62 NSCLC = tested on: HOP-62 NSCLC
IGROV1 ovarian = tested on: IGROV1 ovarian
SW-620 colon = tested on: SW-620 colon
DMS 114 small cell lung = tested on: DMS 114 small cell lung
U251 CNS = tested on: U251 CNS
NCI/ADR-RES ovarian = tested on: NCI/ADR-RES ovarian
RPMI-8226 leukemia = tested on: RPMI-8226 leukemia
COLO 205 colon = tested on: COLO 205 colon
M19-MEL melanoma = tested on: M19-MEL melanoma
HCT-116 colon = tested on: HCT-116 colon
OVCAR-8 ovarian = tested on: OVCAR-8 ovarian
SF-268 CNS = tested on: SF-268 CNS
P388 leukemia = tested on: P388 leukemia
LOX IMVI melanoma = tested on: LOX IMVI melanoma
SN12K1 renal = tested on: SN12K1 renal
XF 498 CNS = tested on: XF 498 CNS
K-562 leukemia = tested on: K-562 leukemia
UO-31 renal = tested on: UO-31 renal
SF-295 CNS = tested on: SF-295 CNS
NCI-H23 lung = tested on: NCI-H23 lung
KM20L2 colon = tested on: KM20L2 colon
SNB-78 CNS = tested on: SNB-78 CNS
HT29 colon = tested on: HT29 colon
OVCAR-4 ovarian = tested on: OVCAR-4 ovarian
A498 renal = tested on: A498 renal
EKVX NSCLC = tested on: EKVX NSCLC
RXF 393 renal = tested on: RXF 393 renal
DMS 273 small cell lung = tested on: DMS 273 small cell lung
OVCAR-3 ovarian = tested on: OVCAR-3 ovarian
MOLT-4 leukemia = tested on: MOLT-4 leukemia
CAKI-1 renal = tested on: CAKI-1 renal
P388/ADR leukemia = tested on: P388/ADR leukemia
UACC-62 melanoma = tested on: UACC-62 melanoma
SK-MEL-2 melanoma = tested on: SK-MEL-2 melanoma
NCI-H226 lung = tested on: NCI-H226 lung
SN12C renal = tested on: SN12C renal
HCC-2998 colon = tested on: HCC-2998 colon
HL-60(TB) leukemia = tested on: HL-60(TB) leukemia
CCRF-CEM leukemia = tested on: CCRF-CEM leukemia
DLD-1 colon = tested on: DLD-1 colon
HOP-92 NSCLC = tested on: HOP-92 NSCLC
SF-539 CNS = tested on: SF-539 CNS
KM12 colon = tested on: KM12 colon
NCI-H460 lung = tested on: NCI-H460 lung
HOP-18 NSCLC = tested on: HOP-18 NSCLC
MCF7 breast = tested on: MCF7 breast
SK-MEL-5 melanoma = tested on: SK-MEL-5 melanoma
SNB-75 CNS = tested on: SNB-75 CNS
SNB-19 CNS = tested on: SNB-19 CNS
SK-OV-3 ovarian = tested on: SK-OV-3 ovarian
HCT-15 colon = tested on: HCT-15 colon
UACC-257 melanoma = tested on: UACC-257 melanoma
NCI-H522 lung = tested on: NCI-H522 lung
SK-MEL-28 melanoma = tested on: SK-MEL-28 melanoma

Measured: TGI

O=[N+]([O-])c1cc(C(F)(F)F)cc2c1SC1=Nc3ccccc3CN12
> 100 µM: all assays above
